Legend:
[1] = Thermal analysis (DSC) of the crystals; format: physicochemical; conditions: 25-300° C., 20° C./min, dry nitrogen gas 50 mL/min
Protocol: For thermal analysis, the measurement was performed in a dry nitrogen gas stream (50 mL/min) from 25° C. to 300° C. at a temperature rise rate of 20° C./min.
For identification of the solvate form of the present invention, a powder X-ray diffraction apparatus (manufactured by Bruker) GADDS detector system and a thermal analysis equipment (manufactured by Mettler-Toledo) DSC822e system were used. The powder X-ray diffraction pattern was measured at room temperature using CuKα as a monochromator within the 2θ angle range of 1.5-41.5°. The thermal analysis was performed in a dry nitrogen gas stream (50 mL/min) from 25° C. to 300° C. at a temperature rise rate of 20° C./min.
Using the white solids obtained in Examples 1 and 2 as sample 1 (hydrochloride salt) and sample 2 (calcium salt), respectively, the thermal analysis was performed under the following conditions.
apparatus: DSC822e manufactured by Metter-Toledo temperature rise rate: 20° C./min atmosphere: dry nitrogen gas 50 mL/min measurement temperature: 25-300° C.
Using the solid obtained in Example 3 as sample 3 (2,2,2-[…] hydrate crystal), the thermal analysis was performed under the following conditions.

[2] = tested on: cardiomyocytes; conditions: cited from earlier work

Molecule	crystal stability by thermal analysis [1]	no noticeable endothermic and exothermic peaks up to (temperature) [1]	excessive influx of calcium ions into cardiomyocytes [2]
Cc1ccc(N2CCNCC2)c(S(=O)(=O)O)c1.Cl [sample 1, 5-methyl-2-(piperazin-1-yl)benzenesulfonic acid hydrochloride]	stable	200 °C	–
Calcium 5-methyl-2-(piperazin-1-yl)benzenesulfonate [sample 2]	stable	200 °C	–
Cc1ccc(N2CCNCC2)c(S(=O)(=O)O)c1 [compound A, 5-methyl-2-(piperazin-1-yl)benzenesulfonic acid]	–	–	remarkably suppresses
Cc1ccc(N2CCNCC2)c(S(=O)(=O)O)c1.OCC(F)(F)F [Sample 3, 5-methyl-2-(piperazin-1-yl)benzenesulfonic acid 2,2,2-tetrafluoroethanolate]	stable	around 80 °C	–
